Test results as given in patent US20210338699A1 (priority 2018, published 2021).
Read-outs that look alike come from different tables or passages of the source.

Tests used:
cells expressing BCR-ABL = test: Proliferation by [3H] thymidine incorporation, BCR-ABL cells; assay type: cell-based; settings: absence of growth factors, 48 hours
Experimental: (§1) FIG. 9A. […] After 48 hours, proliferation was evaluated by [^3H] thymidine incorporation.
FIG. 12A. Graph illustrating the effect of ROCK inhibitor (H-1152) alone or in combination with imatinib on proliferation of myeloid cells expressing BCR-ABL.
(§2) In order to illustrate the imatinib resistance, very high dose of imatinib were used in these cells.
Referring now to FIG. 11, primary CML patient derived cells were examined and a human cell line bearing BCR-ABL (K562) was used as a positive control.

[1] = tested on: cells expressing FLT3-ITD (FLT3N51); test: Proliferation by [3H] thymidine incorporation, FLT3-ITD cells; assay type: cell-based; settings: absence of growth factors, 48 hours
Experimental: as §1, §2

leukemic mice = test: Survival of leukemic mice treated with ROCK inhibitors; assay type: in vivo
Description: Increased ROCK activity is associated with cardiovascular disease (CVD).

ROCK = settings: cited from earlier work
[2] = tested on: blood vessel permeability; settings: mouse, in vivo; cited from earlier work
[3] = tested on: fibroblasts from WT and ROCK1^−/− mice; test: Ponatinib treatment of WT and ROCK1−/− fibroblasts; assay type: cell-based
WT and ROCK1^−/− mice = test: Serial doxorubicin administration, DOX-induced CTX in WT and ROCK1−/− mice
Experimental: FIG. 1A. Schematic diagram representing serial doxorubicin administration protocol. WT and ROCK1^−/− mice received three serial injections weekly of normal saline (NS) or doxorubicin (DOX) (8 mg/kg). […]
The generation of ROCK1 deficient mice have been previously reported. […] To assess if a deficiency of ROCK1 protects the mice from DOX induced CTX, control (WT) and ROCK1^−/− mice were injected with 8 mg/kg of DOX or normal saline (NS) once weekly for 3 consecutive weeks, for a cumulative dose of 24 mg/kg (FIG. 1A). This treatment is based on the previously described approach, which causes progressive cardiac dysfunction within three weeks after the initial injection, a scenario that mimics early-onset of DOX-induced CTX in humans.
To elucidate the role of ROCK1 in DOX induced CTX, ROCK1^−/− mice were treated with DOX in parallel to the WT mice.
During autophagy, the cytosolic form of microtubule-associated protein 1 light chain 3 (LC3-I) is conjugated to phosphatidylethanolamine to form LC3-II, which is recruited to autophagosomal membranes.

[4] = tested on: MHC-Cre/ROCK1^fl/fl and ROCK1^fl/fl mice; test: DOX-induced CTX in cardiomyocyte-specific ROCK1 knockout mice; assay type: in vivo; settings: three weekly injections 8 mg/kg, day 21
Experimental: FIG. 7A. Graph illustrating the percent fractional shortening (FS) of cardiomyocyte-specific ROCK1 knockout mice (MHC-Cre/ROCKfl/fl) and ROCK1fl/fl mice (8-9 weeks old) after receiving three serial injections weekly of NS or DOX (8 mg/kg). Cardiac function was measured by echocardiography analysis on day 21 after the initial injection.
FIG. 7B. Graph illustrating total TUNEL positive nuclei per 10^5 total nuclei in ventricular myocardium from MHC-Cre/ROCK^fl/fl and ROCK1^fl/fl mice hearts on day 21. N=4-6 in each group.
FIG. 7C. Representative heart sections stained with picrosirius red/Fast green illustrating the collagen deposition in ventricular myocardium of MHC-Cre/ROCK^fl/fl and ROCK1^fl/fl mice hearts on day 21. N=4-6 in each group.
To determine if ROCK1 in cardiomyocytes has a role in DOX-induced CTX, cardiomyocyte-specific ROCK1 knockout mice were generated. In myosin heavy chain (MHC)-Cre/ROCK1^fl/fl mice, the ROCK1 protein is truncated only in cardiomyocytes from residue 137 to the end of the protein (FIGS. 6A, 6B). Similar to ROCK1^−/− mice in which the ROCK1 protein is also truncated from residue 180 to the end of the protein in all cells, the conditional targeting approach results in the removal of a large portion of the kinase domain and amino acids from the coiled-coil and the PH domains. […]

AML mice = tested on: AML mice
Description: Three different sources of donor cells will be utilized: 1) WT LSK cells; 2) Tet2^−/−FLT3^ITD/+ LSK cells; and 3) Dnmt3a^−/−FLT3^ITD/+ LSK cells. Lethally irradiated CD45.1^+ (BoyJ) recipient mice of the above described 5 genotypes will be transplanted with CD45.2^+WT, Tet2^−/−FLT3^ITD/+ or Dnmt3a^−/−FLT3^TID/+ leukemic cells along with CD45.1^+ normal cells in 1:1 ratio pooled from 2-3 mice of either gender at 4 months of age. 2 months posttransplant, the development of AML in these mice will be assessed by analysing peripheral blood. Mice will be randomly assigned into two groups: 1) vehicle; and 2) intraperitoneal injection (IP) of DOX 8 mg/kg/week for 3 weeks. This treatment is based on the previously described approach. […] Alternatively, mice will be subjected to 5 IP injections of DOX (5 mg/Kg) with one-week intervals for a cumulative dose of 25 mg/kg over a period of 5 weeks. […] Relapse of these mice will be monitored closely and DOX will be re-administered and then be compared for CTX.

[5] = tested on: cancer patients including AML patients; settings: within 9 years of DOX treatment; cited from earlier work

## O=S(=O)(c1cccc2cnccc12)N1CCCNCC1 [Fasudil]
Cells expressing BCR-ABL
  constitutive growth (thymidine incorporation): similarly repress the growth
[1]
  constitutive growth (thymidine incorporation): similarly repress the growth
Leukemic mice; compared to vehicle treated
  survival of leukemic mice: significant enhancement in survival
Leukemic mice; in vivo models of AML
  anti-leukemic activity: potent anti-leukemic activity

## C[C@@H](N)[C@H]1CC[C@H](C(=O)Nc2ccncc2)CC1 [Y27632]
Cells expressing BCR-ABL
  constitutive growth (thymidine incorporation): similarly repress the growth
[1]
  constitutive growth (thymidine incorporation): similarly repress the growth

## [N]=O [NO, nitric oxide]
ROCK; patients with CVD, exogenous NO
  ROCK activity: inhibits ROCK activity

## Cc1nc(Nc2ncc(C(=O)Nc3c(C)cccc3Cl)s2)cc(N2CCN(CCO)CC2)n1 [dasatinib]
[2]
  amount of Evans Blue in the small intestine: significantly increases

## CC(C)c1c(C(=O)Nc2ccccc2)c(-c2ccccc2)c(-c2ccc(F)cc2)n1CC[C@@H](O)C[C@@H](O)CC(=O)O [atorvastatin]
ROCK; patients with atherosclerosis
  ROCK activity: inhibits ROCK activity

## Cc1ccc(C(=O)Nc2ccc(CN3CCN(C)CC3)c(C(F)(F)F)c2)cc1C#Cc1cnc2cccnn12 [ponatinib]
[3]; ROCK1−/− cells
  cell survival: enhanced survival
  cleaved caspase 3/8 levels: profound decrease
[3]; ROCK1−/− fibroblasts
  ponatinib induced cell shape changes: not the case
[3]; WT fibroblasts
  cleaved caspase 8/3 levels: profound increase
[3]; WT fibroblasts, increasing doses
  ponatinib induced cell shape changes: significant changes

## COc1cccc2c1C(=O)c1c(O)c3c(c(O)c1C2=O)C[C@@](O)(C(=O)CO)C[C@@H]3O[C@H]1C[C@H](N)[C@H](O)[C@H](C)O1 [DOX, doxorubicin]
WT and ROCK1^−/− mice; ROCK1 deficient mice, at 3 months
  mortality rate: 55%
WT and ROCK1^−/− mice; ROCK1 deficient mice, at 6 months
  mortality rate: 70%
WT and ROCK1^−/− mice; ROCK1−/− mice, over 6 weeks after initial DOX injection
  mortality rate: about 10%
WT and ROCK1^−/− mice; WT mice
  death of all treated mice: died within 3 months
WT and ROCK1^−/− mice; WT mice, over 6 weeks after initial DOX injection
  mortality rate: about 70%
WT and ROCK1^−/− mice; mouse, in vivo
  Bax levels: increased
  autophagosomes by transmission electron microscopy: more accumulation of autophagosomes
  body weight: significant impact
  cardiac fibrosis: increased
  cardiac function: preserved
  cardiac function (percent fractional shortening): impaired
  cardiomyocyte size: significant impact
  characteristics of DOX-induced CTX (TUNEL, Bax translocation, fibrosis): effectively blocked
  heart weight: significant impact
  mitochondrial translocation of Bax: increased
  number of TUNEL positive cardiac cells: significantly increased
WT and ROCK1^−/− mice; mouse, in vivo, 8 mg/kg
  DOX-induced LV dilation: blocked
  LV contractile function (LV fractional shortening, FS): reduced
  left ventricular (LV) dilation (LVESD, LVEDD) by echocardiogram: reproducible and progressive left ventricular (LV) dilation
[4]; MHC-Cre/ROCK1fl/fl mice
  cardiotoxic events (cardiac dysfunction, TUNEL positivity, cardiac fibrosis): significantly reduced
[4]; ROCK1fl/fl hearts
  cardiotoxic events (cardiac dysfunction, TUNEL positivity, cardiac fibrosis): induced cardiac dysfunction, increased TUNEL positivity and cardiac fibrosis
AML mice; IP 8 mg/kg/week for 3 weeks
  AML response: complete remission of AML
AML mice; mouse, in vivo, ip, 8 mg/kg
  CTX: severe CTX including dysfunction
[5]
  patients with clinical or sub-clinical manifestation of heart failure: 6-18%
